Reference: patent US20260048145A1, “COMPOSITIONS AND METHODS FOR TREATING DRUG ADDICTION” (The Children's Medical Center Corporation, priority 2022, published 2026)
Numbered stars: 1 amine (or outer) side, 2 acyl side, 3 side chain; on linkers, the order of the positions; unused ones are H or OH. Square brackets hold non-standard residues; d marks the D form. Peptide text beside a SMILES is read from it. NMeF = CN[C@@H](Cc1ccccc1)C(=O)O; Suc = O=C(CCC(=O)[*:2])[*:1]

Experiments:
NK3R [1] = target: T1, NK3R (Mus musculus, UniProt P47937); test: Cocaine-induced locomotion assay with i.p. injection of senktide; type: in vivo, mice; conditions: i.p. injection of senktide vs saline; distance traveled in 30-minute post-treatment period
T1 construct: from tissue; host or cells: whole living mice (in vivo behavioural tests)
T1 sequence (P47937 1-452): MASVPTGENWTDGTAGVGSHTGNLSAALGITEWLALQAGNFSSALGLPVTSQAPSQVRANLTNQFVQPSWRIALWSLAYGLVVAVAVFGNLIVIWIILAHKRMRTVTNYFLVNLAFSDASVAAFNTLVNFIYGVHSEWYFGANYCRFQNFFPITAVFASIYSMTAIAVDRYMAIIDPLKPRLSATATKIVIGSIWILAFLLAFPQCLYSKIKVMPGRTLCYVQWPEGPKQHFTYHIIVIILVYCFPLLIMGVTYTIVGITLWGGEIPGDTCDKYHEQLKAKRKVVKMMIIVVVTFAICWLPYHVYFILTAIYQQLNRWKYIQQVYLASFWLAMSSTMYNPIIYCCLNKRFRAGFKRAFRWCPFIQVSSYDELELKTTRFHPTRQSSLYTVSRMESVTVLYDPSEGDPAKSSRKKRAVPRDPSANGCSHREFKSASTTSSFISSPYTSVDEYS
Method: (§1) FIGS. 12A-12B show systemic injection of a TacR3 agonist, senktide, reduced cocaine-conditioned place preference and cocaine-induced locomotion. […] The CPP scores were calculated by subtracting the time spent in pre-conditioning phase from the time spent in post-conditioning phase, *, […], unpaired t-test.
The basal level of locomotion as well as cocaine-induced change of locomotor activity were assessed in the open field arena the same as the OFT. For chemogenetics experiments, 20 minutes after administration of either saline or CNO, mice were individually placed in the center of the test chamber, triggering the infra-red tracking system to record locomotor activity, as measured by the number of beam breaks. For optogenetic experiments, the total duration of the behavioral test was 30 minutes, which was divided into […] 5×6-min epochs (with 3-minutes laser on. 3-minutes laser off, respectively). Different groups of mice were balanced across the 8 chambers to avoid potential environmental bias.
(§2) The Tac2 gene encodes the neuropeptide neurokinin B (NKB). NKB has high affinity for neurokinin 3 receptor (NK3R, encoded by the TacR3 gene). The NKB-NK3R (ligand-receptor) signal pathway is functional in both central and peripheral nervous systems and have been implicated in diverse physiological processes, such as reproduction, inflammation, and psychiatric disorders^55. […]

NK3R [2] = target: T1, NK3R; test: Cocaine-CPP with systemic injection of senktide; type: in vivo, mice; conditions: systemic injection of senktide vs saline; CPP score
Method: as §1
A two-compartment CPP chamber was used with one compartment with grid rod style floor and the other with mesh style floor (Med Associates). Chamber size is 25×19×17 cm (L×D×H). Mice trajectories were tracked by infra-red photobeam detectors, and the travel distance and the duration the mice spent in the two compartments were recorded. The CPP protocol consists of three sessions that include pre-conditioning, conditioning, and post-conditioning.
as §2, with “disorders^55. To evaluate the functional relevance of the NKB-NK3R pathway in addiction, an NK3R agonist, senktide, was systemically administered to mice, and then addiction-related behavioral tests were performed.” for “disorders^55.”

For `CSCC[C@H](NC(=O)[C@H](CC(C)C)NC(=O)CNC(=O)[C@H](Cc1ccccc1)N(C)C(=O)[C@H](Cc1ccccc1)NC(=O)[C@H](CC(=O)O)NC(=O)CCC(=O)O)C(N)=O` [senktide, Suc-Asp-Phe-(Me-Phe)-Gly-Leu-Met] (Suc-DF[NMeF]GLM-NH2), the cocaine-induced locomotion (NK3R [1]) was “reduced” and the cocaine-conditioned place preference (NK3R [2]) was “reduced”.
